Assay results taken from patent US4150970A, “Growth regulator for plants” (Board of Trustees of Michigan State University, priority 1977, dated 1979).
“Also recorded” adds a separate entry of the source.

Assays:
Chico III tomatoes = test: Synthetic triacontanol on tomatoes grown in soil, foliage sprayed (Example III); type: in vivo, tomato; conditions: six days
Procedure: Synthetic triacontanol in aqueous solution was applied to rice (4 replicates) in nutrient cultures and to "Chico III" tomatoes (6 replicates) grown in soil as previously described. The response of both rice and tomatoes to synthetic triacontanol after seven and six days respectively was similar to that of the natural triacontanol with the optimum rate at between 0.01 and 0.1 mg per liter, as summarized in the following table III:
^2 Tomatoes grown in greenhouse soil and foliage sprayed, including

IR-8 rice seedlings [1] = test: Growth analysis (NAR, RGR, LAR) of IR-8 rice seedlings (Example V); type: in vivo
Procedure: (§1) Rice seed cv. IR-8, or Starbonnet was surface treated with 0.1 percent mercuric chloride and planted in 77 cc plastic cups containing vermiculite and watered with one-fourth Hoagland's nutrient solution containing 3 mM of nitrogen at pH 5.0. After 10 days, seedlings were transplanted to 220 cc specimen cups wrapped in aluminum foil and containing 180 cc of the same Hoagland's nutrient solution. Four seedlings were suspended in the solution with a sponge rubber disc. The plants were grown under a 8 h night at 25° C. and a 16 h day at 30° C. with 21 and 8 μwatts per cm^2 in the blue and red spectra respectively. In the test with varying light intensity the high light intensity was 30 13 and the low intensity was 15 and 8 μwatts per cm^2 for the blue and red spectra respectively. The nutrient solution was renewed every 2 or 3 days. After one week the plants were sorted for size and similar sized plants assigned to the same block for the experiment. Prior to the initiation of a test the plants in each cup were assigned treatment numbers by use of a random number table. […] Sixteen hours prior to a test the foil wrapped cups were tared, and filled with one-half Hoaglands solution containing 6 mM nitrogen. Eighteen μl of chloroform or chloroform containing 1.8 μg triacontanol were placed on 2 cm^2 of Whatman No. 1 filter papers, air dried and placed in the specimen cups. This concentration of 10 μg triacontanol/liter was used for all tests described in the following Examples except where specifically indicated to the contrary. Immediately prior to the test the cups were all brought up to 180 ml. including a set of cups without plants to measure evaporation.
The plants were disected at harvest into shoots and roots. The expanded leaves were cut at the ligule and the newest leaf at the point it entered the sheath. The surface area of expanded leaves were measured using a Lambda Model LI-3000 planimeter. The plants were dried to constant weight in an oven at 100° C. and the roots, expanded leaves, and sheaths were weighed separately.
Growth analysis was conducted according to Evans (1972). The Net Assimulation Rate (NAR) is the increase in plant weight per unit of leaf area over time interval where: W=total weight per plant in mg, T=time in days, and L=leaf area in cm^2. [formula]
The relative growth rate (RGR) is the increase in plant weight per unit of original weight over a time interval and is obtained by: [formula]
The leaf area ratio is the ratio of leaf area to […] over a time interval. [formula]
IR-8 rice seedlings were grown as above explained and were tested at 8 hour, 24 hour, 72 hour, and 216 hour intervals. Control (no treatment) plants are indicated by "0" and triacontanol treated plants are indicated by "+" in Table V. The Net Assimulation Rate (NAR), the Relative Growth Rate (RGR) and the Lead Area Ratio (LAR) was determined for each plant at each interval.

IR-8 rice seedlings [2] = test: Dry weight of rice seedlings in the dark with and without carbon dioxide (Example VII); type: in vivo
Procedure: as §1
In the tests comparing dry weight accumulation in plants grown either in the absence of CO2 or in normal air were grown as previously described except the test was initiated at the end of the 16 hour light period.
Plants were placed in 20×32 cm glass jars fitted with gas inlet and outlet ports. Three jars containing 2 cups each were used for a total of 24 plants for each treatment. The plants were ventilated with air or freed of CO2 by passing it through ascarite and then humidified. The flow rate was approximately 300 ml/minute. Carbon dioxide-free air was also used to purge the appropriate jars during a two minute period required to place the plants in the jars. The N analyses were done by the automated micro-Kjelldahl procedure of Ferrari (1960).
To determine the response of rice seedlings grown in the dark with and without carbon dioxide, 17 day old "IR-8" rice seedlings were grown in the dark for 6 hours. All the parameters of CO2 vs no CO2 and of triacontanol vs no triacontanol were run. The testing procedures were described above.

Michigan 396 field corn = test: Single and multiple foliar applications on field corn (Example XII); type: in vivo
Text: Tests were run, under the conditions above described, to determine the response of "Michigan 396" field corn and "Larker" barley to single and multiple foliar applications of triacontanol at […]. Plants were one week old at time of first treatment and 25 days old at time or harvest. Table XII states the test results.

[3] = test system: Potato callus cell culture; test: Growth of potato callus cell culture (Example XIX); type: cell-based, Solanum tuberosum, var. adveria
Procedure: Cell cultures were separately grown in disposable petri dishes.
3. Potato (Solanum tuberosum, var. adveria)
The cultures were grown on the basic medium of mineral salts described by Linsmaier and Skoog (Physiol. Plant, […] (1965)). Vitamins and hormones varied for each tissue (Table X-1) to maintain the tissues in an undifferentiated state. For all of the tissues inositol was 100 mg/liter and agar 1%. Sucrose was 3% for all but the bean which was 2%.
Callus was produced from pith for tobacco, potato and tomato. Bean callus was produced from hypocotyl sections and barley callus from immature ovarian tissue. Subcultures were maintained on the appropriate media.
Stock solutions of triacontanol were prepared at a concentration of 100 μg/ml. The solvent used was glass distilled benzene. The lower concentrations were obtained by serial dilutions. Treatments were applied to 4.5 cm Whatman #1 filter paper disks in 100 μl aliquots. Controls received 100 μl of glass distilled benzene. The solvent was evaporated for approximately 15 minutes and the filter papers were then placed on the agar medium.
Callus tissue was then broken into pieces of approximately the same size (10 mg) and placed in the petri dishes on the treated filter paper (one piece per dish). For experiments conducted in the light the intensity was approximately 2.0 microwatts/cm^2 -namometer. Fresh weight measurements were made after 12 days of growth.

[4] = printed 10.0 g triacontanol, 12 days

## CCCCCCCCCCCCCCCCCCCCCCCCCCCCCCO [Triacontanol, 1-triacontanol]
Chico III tomatoes; 0.001 mg/liter
  Dry wt: 227 mg/shoot
Chico III tomatoes; 0.010 mg/liter
  Dry wt: 251 mg/shoot
Chico III tomatoes; 0.100 mg/liter
  Dry wt: 245 mg/shoot
Chico III tomatoes; 1.000 mg/liter
  Dry wt: 234 mg/shoot
IR-8 rice seedlings [1]; 0-8 hours
  LAR (Leaf Area Ratio): 0.16
  NAR (Net Assimulation Rate): 3.39 mg plant wt per cm^2 per day
  RGR (Relative Growth Rate): 0.52 mg dry weight per mg original
IR-8 rice seedlings [1]; 9-24 hours
  LAR (Leaf Area Ratio): 0.15
  NAR (Net Assimulation Rate): 0.90 mg plant wt per cm^2 per day
  RGR (Relative Growth Rate): 0.14 mg dry weight per mg original
IR-8 rice seedlings [1]; 25-72 hours
  LAR (Leaf Area Ratio): 0.16
  NAR (Net Assimulation Rate): 1.03 mg plant wt per cm^2 per day
  RGR (Relative Growth Rate): 0.17 mg dry weight per mg original
IR-8 rice seedlings [1]; 73-216 hours
  LAR (Leaf Area Ratio): 0.13
  NAR (Net Assimulation Rate): 1.15 mg plant wt per cm^2 per day
  RGR (Relative Growth Rate): 0.15 mg dry weight per mg original
IR-8 rice seedlings [1]; first 8 hour and subsequent 16 hour period
  net assimilation (NAR) greater than control plants: 37%
IR-8 rice seedlings [2]; dark 6 hours
  CO2 fixation in the dark: stimulated rice seedlings to fix CO2 in the dark; also recorded: stimulates plants, such as rice seedlings, to fix CO2 in the dark
IR-8 rice seedlings [2]; with CO2, dark 6 hours
  Dry Wt, Expanded leaves: 26.7 mg/plant
  Dry Wt, Roots: 25.6 mg/plant
  Dry Wt, Whole Plant: 71.9 mg/plant
IR-8 rice seedlings [2]; without CO2, dark 6 hours
  Dry Wt, Expanded leaves: 22.4 mg/plant
  Dry Wt, Roots: 23.2 mg/plant
  Dry Wt, Whole Plant: 62.0 mg/plant
Michigan 396 field corn; treated at 7, 12 and 18 days
  Dry wt, Corn: 562 mg/shoot
Michigan 396 field corn; treated at 7 and 12 days
  Dry wt, Corn: 542 mg/shoot
Michigan 396 field corn; treated at 12 and 18 days
  Dry wt, Corn: 614 mg/shoot
Michigan 396 field corn; treated at 7 days
  Dry wt, Corn: 548 mg/shoot
Michigan 396 field corn; treated at 12 days
  Dry wt, Corn: 522 mg/shoot
Michigan 396 field corn; treated at 18 days
  Dry wt, Corn: 486 mg/shoot
[3]; potato
  growth of in vitro cell cultures: significant increases in growth
[3]; [4]
  % of control: 121 % of control
  Fresh weight: 23.5
